Earlier results in patent US7622592B2, “Carbonylamino-benzimidazole derivatives as androgen receptor modulators” (Merck & Co., Inc., priority 2002, dated 2009).

Conditions: after 7 years of treatment

## NCCCC(O)(P(=O)(O)O)P(=O)(O)O [alendronate, 4-amino-1-hydroxybutylidene-1,1-bisphosphonic acid]
  increase in spinal BMD: 11
